Measurements published in PubChem BioAssay AID1259407 (Chemical Carcinogenesis Research Information System (CCRIS), 2018).
Calls of active or inactive are those of the source. The rule behind the calls is not given here.

Tested on: CCRIS mutagenicity, Ames/micronucleus/aberration tests
Assay: CCRIS mutagenicity studies
[1] = Test System: AMES SALMONELLA TYPHIMURIUM, Strain/Indicator: TA98, Metabolic Activation: NONE, Method: STANDARD PLATE
[2] = Test System: AMES SALMONELLA TYPHIMURIUM, Strain/Indicator: TA100, Metabolic Activation: NONE, Method: STANDARD PLATE

OB(O)O
mutagenic call (End Point: In vitro chromosomal aberrations, Test System: Human peripheral lymphocytes, Metabolic Activation: None): active; positive (structural changes)
mutagenic call (End Point: In vitro micronucleus, Test System: Human peripheral blood lymphocytes, Metabolic Activation: None): inactive; negative
mutagenic call (Test System: AMES SALMONELLA TYPHIMURIUM, Strain/Indicator: TA98, Metabolic Activation: HAMSTER, LIVER, S-9, AROCLOR 1254, Method: PREINCUBATION): inactive; negative
mutagenic call (Test System: AMES SALMONELLA TYPHIMURIUM, Strain/Indicator: TA98, Metabolic Activation: NONE, Method: PREINCUBATION): inactive; negative
mutagenic call [1]: inactive; negative
mutagenic call (Test System: AMES SALMONELLA TYPHIMURIUM, Strain/Indicator: TA98, Metabolic Activation: RAT LIVER S-9, PHENOBARBITAL AND BETA-NAPHTHOFLAVONE, Method: PREINCUBATION): inactive; negative
mutagenic call (Test System: AMES SALMONELLA TYPHIMURIUM, Strain/Indicator: TA98, Metabolic Activation: RAT, LIVER, S-9, AROCLOR 1254, Method: PREINCUBATION): inactive; negative
mutagenic call (Test System: AMES SALMONELLA TYPHIMURIUM, Strain/Indicator: TA98, Metabolic Activation: RAT, LIVER, S-9, BETA-NAPHTHOFLAVONE AND PHENOBARBITAL, Method: STANDARD PLATE): inactive; negative
mutagenic call (Test System: AMES SALMONELLA TYPHIMURIUM, Strain/Indicator: TA100, Metabolic Activation: HAMSTER, LIVER, S-9, AROCLOR 1254, Method: PREINCUBATION): inactive; negative
mutagenic call (Test System: AMES SALMONELLA TYPHIMURIUM, Strain/Indicator: TA100, Metabolic Activation: NONE, Method: PREINCUBATION): inactive; negative
mutagenic call (Test System: AMES SALMONELLA TYPHIMURIUM, Strain/Indicator: TA100, Metabolic Activation: RAT LIVER S-9, PHENOBARBITAL AND BETA-NAPHTHOFLAVONE, Method: PREINCUBATION): inactive; negative
mutagenic call (Test System: AMES SALMONELLA TYPHIMURIUM, Strain/Indicator: TA100, Metabolic Activation: RAT, LIVER, S-9, AROCLOR 1254, Method: PREINCUBATION): inactive; negative
mutagenic call (Test System: AMES SALMONELLA TYPHIMURIUM, Strain/Indicator: TA100, Metabolic Activation: RAT, LIVER, S-9, BETA-NAPHTHOFLAVONE AND PHENOBARBITAL, Method: STANDARD PLATE): inactive; negative
mutagenic call (Test System: AMES SALMONELLA TYPHIMURIUM, Strain/Indicator: TA102, Metabolic Activation: NONE, Method: STANDARD PLATE): inactive; negative
mutagenic call (Test System: AMES SALMONELLA TYPHIMURIUM, Strain/Indicator: TA102, Metabolic Activation: RAT, LIVER, S-9, BETA-NAPHTHOFLAVONE AND PHENOBARBITAL, Method: STANDARD PLATE): inactive; negative
mutagenic call (Test System: AMES SALMONELLA TYPHIMURIUM, Strain/Indicator: TA1535, Metabolic Activation: HAMSTER, LIVER, S-9, AROCLOR 1254, Method: PREINCUBATION): inactive; negative
mutagenic call (Test System: AMES SALMONELLA TYPHIMURIUM, Strain/Indicator: TA1535, Metabolic Activation: NONE, Method: PREINCUBATION): inactive; negative
mutagenic call (Test System: AMES SALMONELLA TYPHIMURIUM, Strain/Indicator: TA1535, Metabolic Activation: RAT LIVER S-9, PHENOBARBITAL AND BETA-NAPHTHOFLAVONE, Method: PREINCUBATION): inactive; negative
mutagenic call (Test System: AMES SALMONELLA TYPHIMURIUM, Strain/Indicator: TA1535, Metabolic Activation: RAT, LIVER, S-9, AROCLOR 1254, Method: PREINCUBATION): inactive; negative
mutagenic call (Test System: AMES SALMONELLA TYPHIMURIUM, Strain/Indicator: TA1537, Metabolic Activation: HAMSTER, LIVER, S-9, AROCLOR 1254, Method: PREINCUBATION): inactive; negative
mutagenic call (Test System: AMES SALMONELLA TYPHIMURIUM, Strain/Indicator: TA1537, Metabolic Activation: NONE, Method: PREINCUBATION): inactive; negative
mutagenic call (Test System: AMES SALMONELLA TYPHIMURIUM, Strain/Indicator: TA1537, Metabolic Activation: RAT LIVER S-9, PHENOBARBITAL AND BETA-NAPHTHOFLAVONE, Method: PREINCUBATION): inactive; negative
mutagenic call (Test System: AMES SALMONELLA TYPHIMURIUM, Strain/Indicator: TA1537, Metabolic Activation: RAT, LIVER, S-9, AROCLOR 1254, Method: PREINCUBATION): inactive; negative
mutagenic call (Test System: AMES SALMONELLA TYPHIMURIUM, Strain/Indicator: TA1538, Metabolic Activation: NONE, Method: PREINCUBATION): inactive; negative
mutagenic call (Test System: AMES SALMONELLA TYPHIMURIUM, Strain/Indicator: TA1538, Metabolic Activation: RAT LIVER S-9, PHENOBARBITAL AND BETA-NAPHTHOFLAVONE, Method: PREINCUBATION): inactive; negative
mutagenic call (Test System: E.COLI, Strain/Indicator: WP2UVRA, Metabolic Activation: NONE, Method: PREINCUBATION): inactive; negative
mutagenic call (Test System: E.COLI, Strain/Indicator: WP2UVRA, Metabolic Activation: RAT LIVER S-9, PHENOBARBITAL AND BETA-NAPHTHOFLAVONE, Method: PREINCUBATION): inactive; negative
mutagenic call (Test System: MOUSE LYMPHOMA, Strain/Indicator: L5178Y (TK+/TK-), Metabolic Activation: NONE, Method: SUSPENSION/PLATE): inactive; negative
mutagenic call (Test System: MOUSE LYMPHOMA, Strain/Indicator: L5178Y (TK+/TK-), Metabolic Activation: RAT, LIVER, S-9, AROCLOR 1254, Method: SUSPENSION/PLATE): inactive; negative

CC(=O)O[C@H]1C[C@@H]2[C@@]3(C)CCCC(C)(C)[C@@H]3CC[C@@]2(C)[C@@H]2CC=C(C=O)[C@H](C=O)[C@@]12C
mutagenic call [1]: inactive; negative
mutagenic call [2]: inactive; negative
mutagenic call (Test System: AMES SALMONELLA TYPHIMURIUM, Strain/Indicator: TA2637, Metabolic Activation: NONE, Method: STANDARD PLATE): inactive; negative

c1ccc2c(c1)ccc1c3ccccc3ccc21
mutagenic call (Test System: AMES SALMONELLA TYPHIMURIUM, Strain/Indicator: TA97, Metabolic Activation: NONE, Method: STANDARD PLATE): inactive; negative
mutagenic call (Test System: AMES SALMONELLA TYPHIMURIUM, Strain/Indicator: TA97, Metabolic Activation: RAT, LIVER, S-9, PCB, Method: STANDARD PLATE): active; positive
mutagenic call [1]: inactive; negative
mutagenic call (Test System: AMES SALMONELLA TYPHIMURIUM, Strain/Indicator: TA98, Metabolic Activation: RAT, LIVER, S-9, AROCLOR 1254, Method: STANDARD PLATE): active; positive
mutagenic call (Test System: AMES SALMONELLA TYPHIMURIUM, Strain/Indicator: TA98, Metabolic Activation: RAT, LIVER, S-9, PCB, Method: STANDARD PLATE): active; positive
mutagenic call [2]: inactive; negative
mutagenic call (Test System: AMES SALMONELLA TYPHIMURIUM, Strain/Indicator: TA100, Metabolic Activation: POOLED HUMAN LIVER MICROSOMES, Method: PREINCUBATION): inactive; negative
mutagenic call (Test System: AMES SALMONELLA TYPHIMURIUM, Strain/Indicator: TA100, Metabolic Activation: RAT, LIVER, MICROSOMES, AROCLOR 1254, Method: STANDARD PLATE): active; positive
mutagenic call (Test System: AMES SALMONELLA TYPHIMURIUM, Strain/Indicator: TA100, Metabolic Activation: RAT, LIVER, MICROSOMES, CHRYSENE, Method: STANDARD PLATE): inactive; negative
mutagenic call (Test System: AMES SALMONELLA TYPHIMURIUM, Strain/Indicator: TA100, Metabolic Activation: RAT, LIVER, MICROSOMES, Method: STANDARD PLATE): inactive; negative
mutagenic call (Test System: AMES SALMONELLA TYPHIMURIUM, Strain/Indicator: TA100, Metabolic Activation: RAT, LIVER, S-9, AROCLOR 1254, Method: STANDARD PLATE): active; positive
mutagenic call (Test System: AMES SALMONELLA TYPHIMURIUM, Strain/Indicator: TA100, Metabolic Activation: RAT, LIVER, S-9, PCB, Method: STANDARD PLATE): active; positive
mutagenic call (Test System: AMES SALMONELLA TYPHIMURIUM, Strain/Indicator: TA100, Metabolic Activation: RAT, LIVER, S-9, PHENOBARBITAL AND 5,6-BENZOFLAVONE, Method: PREINCUBATION): active; positive
mutagenic call (Test System: CHINESE HAMSTER OVARY, Strain/Indicator: CHO-K1-BH4 (HGPRT)/6-THIOGUANINE, Metabolic Activation: NONE, Method: STANDARD PLATE): inactive; negative
mutagenic call (Test System: CHINESE HAMSTER OVARY, Strain/Indicator: CHO-K1-BH4 (HGPRT)/6-THIOGUANINE, Metabolic Activation: RAT, LIVER, S-9, AROCLOR 1254, Method: STANDARD PLATE): active; positive
mutagenic call (Test System: CHINESE HAMSTER OVARY, Strain/Indicator: CHO-UV5 (HGPRT)/6-THIOGUANINE, Metabolic Activation: NONE, Method: STANDARD PLATE): inactive; negative
mutagenic call (Test System: CHINESE HAMSTER OVARY, Strain/Indicator: CHO-UV5 (HGPRT)/6-THIOGUANINE, Metabolic Activation: RAT, LIVER, S-9, AROCLOR 1254, Method: STANDARD PLATE): active; positive
mutagenic call (Test System: LACZ TRANSGENIC MOUSE (MUTATM MOUSE), Strain/Indicator: LACZ MUTANT FREQUENCY, Method: LIVER, SPLEEN, LUNG, KIDNEY, BONE MARROW, COLON HARVESTED 7 D AFTER LAST DOSE, DNA ISOLATED): active; positive; g:c to t:a transversions in all organs
